According to publication PMC3124361 (Journal of medicinal chemistry, 2011):
pIC50: −log10 of the molar value. In brackets after ≈: the same amount, converted by molar mass. Several values for one entry are separate records, joined by “and”; a condition that tells them apart may be missing. Equal entries are not always repeated. Where two headings read alike, the source gives them in different places.

Key:
[1] = Non-equilibrium solubility by nephelometry, pH 6.5; assay type: physicochemical; conditions: for solubility: phosphate buffer
[2] = In vitro metabolism in human liver microsomes; assay type: in vitro ADME; conditions: for microsomal CLint at 1 μM: microsomes, pH 7.4; for Eh Human: predicted hepatic extraction ratio
[3] = In vitro metabolism in mouse liver microsomes; assay type: in vitro ADME; conditions: for microsomal CLint at 1 μM: microsomes, pH 7.4; for Eh Mouse: predicted hepatic extraction ratio
PfDHODH = molecular target: T1, PfDHODH (Plasmodium falciparum, UniProt Q08210); assay: PfDHODH DCIP dye-based enzyme assay; assay type: biochemical; conditions: for pIC50: IC50 PfDHODH
T1 sequence (Q08210 158-569 limits assumed): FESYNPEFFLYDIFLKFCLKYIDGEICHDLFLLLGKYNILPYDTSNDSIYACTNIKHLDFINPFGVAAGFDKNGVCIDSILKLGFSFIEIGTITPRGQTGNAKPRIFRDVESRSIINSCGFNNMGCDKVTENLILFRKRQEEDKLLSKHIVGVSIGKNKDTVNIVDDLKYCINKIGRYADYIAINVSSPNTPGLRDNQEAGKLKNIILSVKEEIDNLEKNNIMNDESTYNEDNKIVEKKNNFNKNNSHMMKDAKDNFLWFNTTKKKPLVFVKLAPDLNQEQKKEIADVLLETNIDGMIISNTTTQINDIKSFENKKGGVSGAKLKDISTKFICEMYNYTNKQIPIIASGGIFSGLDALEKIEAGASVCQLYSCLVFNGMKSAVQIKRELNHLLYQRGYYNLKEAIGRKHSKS

human albumin = human albumin (Homo sapiens, UniProt P02768); assay: Protein binding estimated on human albumin column; assay type: in vitro ADME; conditions: human albumin chromatographic method
Sequence of human albumin (P02768 25-609): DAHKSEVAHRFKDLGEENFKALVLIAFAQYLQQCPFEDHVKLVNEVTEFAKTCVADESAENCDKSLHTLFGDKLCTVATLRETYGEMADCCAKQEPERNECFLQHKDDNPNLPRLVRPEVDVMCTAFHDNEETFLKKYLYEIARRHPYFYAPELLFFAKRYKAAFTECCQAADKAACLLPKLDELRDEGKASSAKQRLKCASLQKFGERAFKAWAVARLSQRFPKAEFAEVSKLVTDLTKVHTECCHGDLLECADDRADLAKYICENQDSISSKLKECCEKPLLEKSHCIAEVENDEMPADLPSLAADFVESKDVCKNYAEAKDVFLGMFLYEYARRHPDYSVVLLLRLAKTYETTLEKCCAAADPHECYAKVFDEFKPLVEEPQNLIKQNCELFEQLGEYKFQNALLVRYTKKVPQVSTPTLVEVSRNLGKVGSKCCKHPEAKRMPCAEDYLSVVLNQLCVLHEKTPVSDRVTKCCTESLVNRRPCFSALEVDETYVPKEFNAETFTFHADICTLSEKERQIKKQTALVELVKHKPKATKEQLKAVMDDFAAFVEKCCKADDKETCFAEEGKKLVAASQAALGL

[4] = Mouse systemic exposure after single oral dose; assay type: in vivo; conditions: single oral dose 20 mg/kg, plasma
[5] = test system: P. berghei NK65 ANKA strain; conditions: cited from earlier work
P. falciparum 3D7 cells = assay: P. falciparum whole cell assay; assay type: cell-based, Plasmodium falciparum
[6] = Rat pharmacokinetics after IV and oral administration; assay type: in vivo; conditions: for adverse reactions following IV or oral administration: either dose route; for clearance: male, Sprague Dawley, in vivo, iv
rat plasma proteins = assay: Protein binding in rat plasma by ultracentrifugation; assay type: in vitro ADME; conditions: 37°C
[7] = test system: P. berghei NK65 ANKA strain; assay: Peter's test, P. berghei efficacy in mice; assay type: in vivo, Plasmodium berghei; conditions: for ED50: Plasmodium berghei, in Mus musculus, po, read-out: ED50 95% confidence interval; for adverse reactions attributed to drug: any of the dose levels, efficacy study in mice
[8] = ref [13], [15], cited from earlier work

| Structure (SMILES) | aqueous solubility at pH 6.5 (in words) [1] | microsomal CLint at 1 μM [2] [µL/min/mg] | Eh Human [2] | microsomal CLint at 1 μM [3] [µL/min/mg] | Eh Mouse [3] | solubility [1] [µM] | Human Plasma Binding (human albumin) [%] | also measured |
| --- | --- | --- | --- | --- | --- | --- | --- | --- |
| Cc1cc(NC2CCc3ccccc3C2)n2ncnc2n1 (centres unmarked) [Compound 49, 5-Methyl-N-(1,2,3,4-tetrahydronaphthalen-2-yl)-[1,2,4]triazolo[1,5-a]pyrimidin-7-amine] | highly soluble | < 10 | < 0.2 | > 25 | 0.61 | – | – | – |
| Cc1cc(Nc2ccc(N(C)C)cc2)n2ncnc2n1 [Compound 23, N^1,N^1-Dimethyl-N^4-(5-methyl-[1,2,4]triazolo[1,5-a]pyrimidin-7-yl)benzene-1,4-diamine] | – | – | 0.4 | – | 0.91 | 93 to 186 (≈ 25 to 49.9 µg/mL) | – | fold less potent / increase of PfDHODH IC50 over 14 (PfDHODH; comparator 14): 4 fold |
| Cc1cc(Nc2ccc(C(C)C)cc2)n2ncnc2n1 [Compound 14, N-(4-Isopropylphenyl)-5-methyl-[1,2,4]triazolo[1,5-a]pyrimidin-7-amine] | – | – | 0.64 | – | 0.91 | 47 to 94 (≈ 12.6 to 25.1 µg/mL) | 91.3 | Time above 1 μM [4]: <1 h |
| CCCc1ccc(Nc2cc(C)nc3ncnn23)cc1 [Compound 8, N-(4-Propylphenyl)-5-methyl-[1,2,4]triazolo[1,5-a]pyrimidin-7-amine] | highly soluble | – | 0.66/ND | – | – | 187 to 374 (≈ 50 to 100 µg/mL) | 93.5 | – |
| Cc1cc(Nc2ccc3c(c2)CCC3)n2ncnc2n1 [Compound 34, N-(2,3-dihydro1H-inden-5-yl)-5-methyl-[1,2,4]triazolo[1,5-a]pyrimidin-7-amine] | – | – | 0.81 | – | 0.94 | 47 to 94 (≈ 12.5 to 24.9 µg/mL) | 92.5 | – |
| CCc1ccc(Nc2cc(C)nc3ncnn23)cc1 [Compound 7, N-(4-Ethylphenyl)-5-methyl-[1,2,4]triazolo[1,5-a]pyrimidin-7-amine] | – | – | 0.77/ND | – | – | 25 to 50 (≈ 6.33 to 12.7 µg/mL) | 88.0 | – |
| CCCCc1ccc(Nc2cc(C)nc3ncnn23)cc1 [Compound 9, N-(4-Butylphenyl)-5-methyl-[1,2,4]triazolo[1,5-a]pyrimidin-7-amine] | poorly soluble | – | 0.67/ND | – | – | 11 to 22 (≈ 3.09 to 6.19 µg/mL) | 96.7 | – |
| CCN(CC)CCCC(C)Nc1ccnc2cc(Cl)ccc12 (centres unmarked) [chloroquine, reference compound] | – | – | – | – | – | – | – | ED50 in this model ([5]; previous reports, ref [20]): ~2 mg/kg |
| Cc1cc(Nc2ccc(S(F)(F)(F)(F)F)cc2)n2ncnc2n1 [Compound 21, N-(4-Pentafluorosulfenylphenyl)-5-methyl-[1,2,4]triazolo[1,5-a]pyrimidin-7-amine] | – | < 6 | <0.2/<0.2 | – | <0.2/<0.2 | 71 to 142 (≈ 24.9 to 49.9 µg/mL) | 95.4 | pIC50 (PfDHODH): > 6.52; fold better activity (lower IC50) against PfDHODH than 2 (PfDHODH; comparator 2): 2-3 fold; fold EC50 above the levels for the comparator anti-malarial drugs (P. falciparum 3D7 cells): 10-200 fold; Time above 1 μM ([4]; 20 mg/kg): 18 h; adverse reactions following IV or oral administration [6]: No adverse reactions; clearance ([6]; 5.1 mg/kg): 1.2 mL/min/kg; binding to rat plasma proteins (rat plasma proteins): 95.2%; parasite clearance (in words) ([7]; 50 mg/kg BID): none of the mice were parasite free on any day; parasite clearance (in words) ([7]; 100 mg/kg QD): none of the mice were parasite free on any day; ED50 [7]: 10 to 29 mg/kg; adverse reactions attributed to drug [7]: No adverse reactions |
| C=Cc1ccc(Nc2cc(C)nc3ncnn23)cc1 [Compound 17, N-(4-Vinylphenyl)-5-methyl-[1,2,4]triazolo[1,5-a]pyrimidin-7-amine] | – | – | 0.64 | – | 0.88 | 25 to 50 (≈ 6.28 to 12.6 µg/mL) | 84.4 | – |
| C#Cc1ccc(Nc2cc(C)nc3ncnn23)cc1 [Compound 18, N-(4-Ethynylphenyl)-5-methyl-[1,2,4]triazolo[1,5-a]pyrimidin-7-amine] | – | < 10 | 0.31 | > 25 | 0.54 | 100 to 200 (≈ 24.9 to 49.9 µg/mL) | 81.8 | – |
| Cc1cc(Nc2ccc(C(C)(C)C)cc2)n2ncnc2n1 [Compound 15, N-(4-tert-Butylphenyl)-5-methyl-[1,2,4]triazolo[1,5-a]pyrimidin-7-amine] | poorly soluble | > 30 | – | > 30 | – | 11 to 22 (≈ 3.09 to 6.19 µg/mL) | 93.2 | pIC50 (PfDHODH; stated in text): > 7.00 |
| Cc1cc(Nc2ccc(C(C)(C)C)c(F)c2)n2ncnc2n1 [Compound 29, N-(4-tert-Butyl-3-fluorophenyl)-5-methyl-[1,2,4]triazolo[1,5-a]pyrimidin-7-amine] | poorly soluble | > 30 | – | > 30 | – | – | 96.4 | pIC50 (PfDHODH; stated in text): > 7.00 and ~7.52; fold decrease in PfDHODH IC50 vs 15 (PfDHODH; comparator 15): 2 fold; Time above 1 μM [4]: <1 h |
| Cc1cc(Nc2cc(F)c(C(F)(F)F)c(F)c2)n2ncnc2n1 [Compound 32, N-(3,5-difluoro-4-(trifluoromethyl)phenyl)-5-methyl-[1,2,4]triazolo[1,5-a]pyrimidin-7-amine] | poorly soluble | < 6 | <0.2/<0.2 | – | <0.2/<0.2 | 9 to 18 (≈ 2.96 to 5.93 µg/mL) | 96.6 | pIC50 (PfDHODH): > 6.52; Time above 1 μM ([4]; 20 mg/kg): 19 h; adverse reactions following IV or oral administration [6]: No adverse reactions; clearance ([6]; 0.9 mg/kg): 2.3 mL/min/kg; clearance ([6]; 2.9 mg/kg): 1.5 mL/min/kg; binding to rat plasma proteins (rat plasma proteins): 97.3%; parasite clearance (in words) ([7]; 50 mg/kg BID): parasite free on day 5; mice remaining parasite free through day 7 ([7]; 100 mg/kg BID, parasites reemerged on day 9): 4/5; parasite clearance (in words) ([7]; 100 mg/kg QD): parasite free on day 5; ED50 [7]: 7.6 to 13 mg/kg; adverse reactions attributed to drug [7]: No adverse reactions |
| Cc1cc(Nc2ccc(C(F)(F)F)cc2)n2ncnc2n1 [Compound 2, (5-methyl-[1,2,4]triazolo[1,5-a]pyrimidin-7-yl)-(4-trifluoromethyl-phenyl)-amine] | – | – | – | – | – | 21 to 43 (≈ 6.16 to 12.6 µg/mL) | 86.9 | CLint Human ([8]; human liver microsomes, reported previously): 8/ND ^a μL/min/mg protein; Eh Human ([8]; predicted hepatic extraction ratio, human): 0.29/ND ^a; suppression of parasitemia ([5]; 50 mg/kg BID, 24 h after the last dose, ref [15]): 90% |
| Cc1cc(Nc2ccc(C3CC3)cc2)n2ncnc2n1 [Compound 16, N-(4-Cyclopropylphenyl)-5-methyl-[1,2,4]triazolo[1,5-a]pyrimidin-7-amine] | highly soluble | – | 0.75 | – | 0.93 | – | 86.8 | – |
| Cc1cc(NC2Cc3ccccc3C2)n2ncnc2n1 [Compound 45, N-(2,3-Dihydro-1H-inden-2-yl)-5-methyl-[1,2,4]triazolo[1,5-a]pyrimidin-7-amine] | highly soluble | < 10 | < 0.2 | > 25 | 0.59 | 188 to 376 (≈ 49.9 to 99.8 µg/mL) | 76.1 | Time above 1 μM [4]: <1 h |
| Cc1cc(Nc2ccc3sccc3c2)n2ncnc2n1 [Compound 36, N-(Benzo[b]thiophen-5yl)-5-methyl-[1,2,4]triazolo[1,5-a]pyrimidin-7-amine] | – | > 30 | – | > 30 | – | 22 to 44 (≈ 6.19 to 12.4 µg/mL) | 89.8 | pIC50 (PfDHODH; stated in text): > 7.00; Time above 1 μM [4]: <1 h |
| Cc1cc(Nc2ccc3c(c2)CCCC3)n2ncnc2n1 [Compound 33, 5-methyl-N-(5,6,7,8-tetrahydronaphthalen-2yl)-[1,2,4]triazolo[1,5-a]pyrimidin-7-amine] | – | > 30 | – | > 30 | – | 89 to 179 (≈ 24.9 to 50 µg/mL) | 95.5 | pIC50 (PfDHODH): 7.46; pIC50 (PfDHODH; stated in text): > 7.00 and ~7.52 |
| Cc1cc(Nc2ccc(SC(F)(F)F)cc2)n2ncnc2n1 [Compound 20, 5-Methyl-N-(4-(trifuoromethylthio)phenyl)-[1,2,4]triazolo[1,5-a]pyrimidin-7-amine] | poorly soluble | < 10 | < 0.2 | > 25 | 0.84 | 5 to 10 (≈ 1.63 to 3.25 µg/mL) | 96.1 | – |
